Test results reported in US12595251B2, “Amidines and amidine analogs for the treatment of bacterial infections and potentiation antibiotics” (GEORGIA STATE UNIVERSITY RESEARCH FOUNDATION, INC., priority 2018, dated 2026).
“Also recorded” adds a separate entry of the source. Where a name gives a salt, the structure may show the parent alone.

Key:
wild-type E. coli = assay: Sensitization of wild-type E. coli toward antibiotics (MIC of antibiotic with/without sensitizer); format: cell-based, Escherichia coli; settings: for Sensitization fold: compound at 5 μg/ml, strain and antibiotic not stated in Table 8
Description: Bacteria were cultured with the antibiotic at various concentrations in the presence or absence of bacterial sensitizer for 24 hours at 37° C. Bacterial growth density was determined by measuring OD600 (absorbance measured at a wavelength of 600 nm). […]
The formula for calculating FIC is shown below: […]

wild type B. subtilis [1] = assay: Sensitization of B. subtilis toward antibiotics (MIC, OD600, 24 h); format: cell-based, Bacillus subtilis
Description: (§1) FIG. 22A is a bar graph showing that Compound M-1 sensitizes B. subtilis towards rifampicin as described in Example 13. Bacteria was cultured with rifampicin at various concentrations in the presence or absence of Compound M-1 for 24 hours at 37° C. and bacterial growth density was determined by measuring OD600. The y-axis is growth density measured in percent. The x-axis is rifampicin concentration measured in micrograms per milliliter (***: p<0.01).
Compound M-1 can sensitize Gram-positive bacteria such as B. subtilis towards traditional antibiotics. […] The sensitization fold is 32-fold for Compound M-1 and the FIC index is 0.14.

MRSA = assay: Sensitization of MRSA toward antibiotics (OD600, 24 h); format: cell-based, Staphylococcus aureus; settings: for Sensitization of MRSA towards rifampicin (qualitative): FIG. 22B, 24 h, 37 °C
Description: as §1, with “Bacteria” for “FIG. 22A is a bar graph showing that Compound M-1 sensitizes B. subtilis towards rifampicin as described in Example 13. Bacteria”
Compound M-1 (2.7 μg/ml) sensitizes MRSA towards existing antibiotics such as rifampicin (32-fold) (FIG. 22B) and trovafloxacin (16-fold). Rifampicin is the first line of defense against MRSA and many MRSA stains grow resistance to rifampicin through overexpression of efflux pump and other mechanisms. Combined with Compound M-1, rifampicin can be used more effectively against MRSA.

E. coli and MRSA = assay: Relative ratio of E. coli and MRSA under trovafloxacin with/without Compound A-8; format: cell-based, Escherichia coli; Staphylococcus aureus
From the text: FIG. 23A is a comparison of the relative ratio of E. coli and MRSA treated with the antibiotic trovafloxacin in the absence (pie chart on the left) and in the presence (pie chart on the right) of Compound A-8 as described in Example 14. In the absence of Compound A-8, trovafloxacin preferred to inhibit E. coli and the bacterial population was 78% MRSA. However, Compound A-8 sensitizes trovafloxacin to MRSA.
(§2) As a proof of concept, the relative ratio of E. coli and MRSA (FIG. 23A) or B. subtilis and MRSA (FIG. 23 B) was measured with and without Compound A-8. […] However, when trovafloxacin (8 ng/ml) is supplied with 1.5 μg/ml of Compound A-8, MRSA inhibition was achieved and E. coli was the dominant species (89% of the bacteria population).

B. subtilis and MRSA = assay: Relative ratio of B. subtilis and MRSA under trovafloxacin with/without Compound A-8; format: cell-based, Bacillus subtilis; Staphylococcus aureus
Description: FIG. 23B is a comparison of the relative ratio of B. sub and MRSA treated with the antibiotic trovafloxacin in the absence (pie chart on the left) and in the presence (pie chart on the right) of Compound A-8 as described in Example 14. […] However, Compound A-8 sensitizes trovafloxacin to MRSA.
as §2

B. subtilis = B. subtilis viability with antibiotic in absence or presence of compound (OD600, 20 h); format: cell-based, Bacillus subtilis; settings: for B. subtilis growth inhibition, compound in combination with erythromycin vs erythromycin alone: M-1 12.5 or 6 μM, A-2 6 or 12.5 μM, A-8
Description: Bacterial viability was then determined by measuring density using OD600. […] B. subtilis was also cultured with either novobiocin or tetracycline at varying concentrations either in the absence or presence of compound M-1 (12.5 μM) for 20 hours. Bacterial viability was subsequently determined by measuring density using OD600.
(§3) Bacterial viability was then determined by measuring density using OD600.

E. coli [2] = assay: E. coli viability with antibiotic in absence or presence of compound (OD600, 20 h); format: cell-based, Escherichia coli; settings: for E. coli growth inhibition, compound in combination with erythromycin: M-1 25 μM or 12 μM, A-1 12 μM, A-8, 20 h
Description: as §3

Klebsiella pneumoniae = assay: Sensitization of Klebsiella pneumoniae to clarithromycin; format: cell-based; settings: FIG. 16
From the text: The x-axis is clarithromycin measured in μg/ml and the y-axis is growth measured in percent.

E. coli outer membrane = E. coli outer membrane integrity, lysozyme lysis assay; format: cell-based, Escherichia coli; settings: lysozyme 50 μg/ml, Compound C 25 μg/ml, 10 min, OD600; dihydrochloride
Description: FIG. 20 is a graph of the E. coli outer membrane integrity measurement using the lysosomal lysis assay as described in Example 10. E. coli (OD600 measurement of about 0.5) was treated with Compound C with or without lysozyme for 10 minutes at room temperature. E. coli with impaired outer membrane caused by Compound C lead to decreased OD600 measurements. The x-axis is labeled with the compound and the y-axis is E. coli growth density determined by measuring OD600, Polymyxin B and pentamidine were used as positive controls.
The mechanism of action was also elucidated using a well-recognized lysosome assay that allows for assessment of membrane permeability. Specifically, lysozyme (about 14 KDa) breaks down bacterial cell wall and leads to bacterial lysis. However, lysozyme cannot penetrate intact Gram-negative bacterial outer membrane. With impaired Gram-negative bacterial membrane, lysozyme is able to diffuse across the disrupted membrane and enzymatically cleave peptidoglycan, which leads to bacterial lysis. […] In the absence of the sensitizer, no cell lysis was observed.

[3] = Lipid A binding assay using Dansyl-PMBN displacement on E. coli; design: species or system Escherichia coli; settings: 10 μM Dansyl-PMBN on E. coli, gradual addition of compound
Description: FIG. 21 is a graph describing the in vivo lipid A binding assay using Dansyl-PMBN as described in Example 11. Dansyl-PMBN (10 μM) was added to E. coli (OD600 measurement of about 0.5) and the fluorescent intensity at this time was recorded as F0. Sensitizers (Compound C, Compound E-20, and Polymyxin B) were added gradually and the fluorescent intensity was recorded 30 seconds later to determine the fluorescent intensity as a percent. The x-axis is concentration of the sensitizers measured in μM and the y-axis is the fluorescent intensity measured as a percent.
Lipid A is a key component of the outer membrane of Gram-negative bacteria and is responsible for maintaining its integrity of the outer membrane. The binding affinity of the compounds of the present invention to Lipid A was measured following literature procedures using a fluorescent conjugate of a polymyxin-B derivative (Dansyl-PMBN). Dansyl-PMBN binds to the lipid A part of LPS and leads to increased fluorescent intensity. […] When 10 μM of Dansyl-PMBN was added to E. coli stock (OD600 measurement around 0.5), the fluorescent intensity increased 10-fold.

E. coli [4] = assay: O-methyl novobiocin concentration inside E. coli (HPLC of lysate); format: cell-based, Escherichia coli; settings: 50 μg/ml O-methyl novobiocin, 24 h, with 10 μg/ml Compound M-1 vs without
Description: The antibiotic concentration inside E. coli with and without Compound M-1 was measured. The inactivated form of antibiotic was used because the active antibiotic would kill the bacteria or inhibit bacterial growth and this would lead to results that cannot be compared against other control experiments. O-Methyl novobiocin is an inactivated form of novobiocin that was used for this experiment.
E. coli was cultured with 50 μg/ml O-methyl novobiocin for 24 hours at 37° C. with continuous shaking in the absence and presence of 10 μg/ml Compound M-1. E. coli was then centrifuged and the supernatant was removed. To the precipitation that contained E. coli, PBS and novobiocin were added as internal standard and the resulting mixture was sonicated to lyse the cell. The mixture was diluted with acetonitrile (3×) and centrifuged. The supernatant, which contained O-methyl novobiocin, was analyzed by HPLC. The O-methyl novobiocin concentrations inside the bacteria increased 9.1-fold in E. coli in the presence of 10 μg/ml Compound M-1 (FIG. 19). Such results correlate well with the fact that 10 μg/ml Compound M-1 can sensitize E. coli towards novobiocin 8-fold.

E. coli [5] = assay: Resistance frequency analysis of E. coli on agar plates; format: cell-based, Escherichia coli; settings: from 6*10^8 CFU E. coli; antibiotic at 2 to 6-fold MIC with 10 μg/ml Compound M-1, 48 h
Description: Resistance frequency is an important issue to consider when developing new antimicrobial agents. Using a standard resistance frequency analysis procedure, the resistance frequency was determined. […] Colonies that survived the antibiotic and Compound M-1 combination were considered resistant mutant strains toward this combinational treatment. […] Compound M-1 lowers the resistance frequency of bacteria toward antibiotics. The component in the combination responsible for the resistance was next determined. The 16 resistant colonies were challenged with another combination-rifampicin and Compound M-1.

wild type B. subtilis [6] = assay: Sensitization of B. subtilis toward antibiotics (MIC, OD600, 24 h); format: cell-based, Bacillus subtilis; settings: Compound M-1 5.5 μg/ml
[7] = trovafloxacin in presence of Compound A-8

Cc1cc(CCc2ccc(C(=N)N)cc2)cc(CCc2ccc(C(=N)N)cc2)c1 [Compound A-8, 4,4′-((5-Methyl-1,3-phenylene)bis(ethane-2,1-diyl))dibenzimidamide Dihydrochloride]
Concentration required to sensitize wild type E. coli towards rifampicin 32-fold (wild-type E. coli): 7 µg/mL | Sensitization fold (wild-type E. coli): 16 | Concentration required to sensitize B. subtilis towards rifampicin 32-fold (wild type B. subtilis [1]): 3 µg/mL | Concentration required to sensitize MRSA towards rifampicin 32-fold (MRSA): 1.5 µg/mL | Sensitization of MRSA towards rifampicin (qualitative) (MRSA): sensitize MRSA towards rifampicin | E. coli share of the bacteria population (E. coli + MRSA) (E. coli and MRSA; trovafloxacin (8 ng/ml) with 1.5 μg/ml of Compound A-8): 89% | MRSA share of the bacteria population (E. coli + MRSA) (E. coli and MRSA; [7]): 11% | B. subtilis share of the bacteria population (B. subtilis + MRSA) (B. subtilis and MRSA; 8 ng/ml trovafloxacin and 1.5 μg/ml of Compound A-8): 99.5% | MRSA share of the bacteria population (B. subtilis + MRSA) (B. subtilis and MRSA; [7]): 0.5% | B. subtilis growth inhibition, compound in combination with erythromycin vs erythromycin alone (B. subtilis; 20 h): significant bacterial growth inhibition | E. coli growth inhibition, compound in combination with erythromycin (E. coli [2]): growth inhibition was also observed | Sensitization of Klebsiella pneumoniae to clarithromycin (Klebsiella pneumoniae): sensitization of Klebsiella pneumoniae to clarithromycin

N=C(N)c1ccc(COc2cc(OCc3ccc(C(=N)N)cc3)cc(C(F)(F)F)c2)cc1 [Compound C, 1,3-Bis {(4-amidino)-benzyloxy}-5-trifluoromethylbenzene dihydrochloride]
Minimal concentration achieving 10-fold sensitization of E. coli toward erythromycin (wild-type E. coli): 2.5 μg/ml | Sensitization fold, rifampicin on E. coli (wild-type E. coli; Compound C 2 μg/ml): 8 | Sensitization fold, rifampicin on E. coli (wild-type E. coli; Compound C 4 μg/ml): 128 | Sensitization fold, rifampicin on E. coli (wild-type E. coli; Compound C 6 μg/ml): 1024 | Sensitization fold, rifampicin on E. coli (wild-type E. coli; Compound C 8 μg/ml): 2,048 | MIC of rifampicin on E. coli (wild-type E. coli; with Compound C 2 μg/ml): 1.25 mg/L | MIC of rifampicin on E. coli (wild-type E. coli; with Compound C 4 μg/ml): 0.08 mg/L | MIC of rifampicin on E. coli (wild-type E. coli; with Compound C 6 μg/ml): 0.01 mg/L | MIC of rifampicin on E. coli (wild-type E. coli; with Compound C 8 μg/ml): 0.005 mg/L | MIC of rifampicin on E. coli (wild-type E. coli; with Compound C 10 μg/ml): 0.0006 mg/L | Lysozyme-induced lysis of E. coli (membrane integrity) (E. coli outer membrane): quick bacterial lysis; also recorded: more potent than pentamidine | Binding to lipid A (decrease of Dansyl-PMBN fluorescent intensity) [3]: bind to lipid A

Cc1cc(COc2ccc(C(=N)N)cc2)cc(COc2ccc(C(=N)N)cc2)c1 [Compound M-1, 4,4′-(((5-Methyl-1,3-phenylene)bis(methylene))bis(oxy))dibenzimidamide Hydrochloride]
Sensitization of E. coli towards novobiocin (wild-type E. coli; 10 μg/ml Compound M-1): 8 fold | Sensitization fold (wild-type E. coli): 8 | Increase of O-methyl novobiocin concentration inside E. coli (E. coli [4]): 9.1 fold | Colonies resistant to antibiotic-Compound M-1 combinations (E. coli [5]): 16 colonies | FIC index, rifampicin on B. subtilis (wild type B. subtilis [1]; 5.5 μg/ml Compound M-1): 0.11 | Sensitization fold, B. subtilis towards rifampicin (wild type B. subtilis [1]; 5.5 μg/ml Compound M-1): 256 fold | Growth density compared with no-treatment group (wild type B. subtilis [1]; 5.5 μg/ml of Compound M-1 by itself): 80% | MIC (wild type B. subtilis [1]; Bacillus subtilis, read-out: MIC on wild type B. subtilis): 50 mg/L | Sensitization fold, MRSA towards rifampicin (MRSA; Compound M-1 2.7 μg/ml): 32 fold | Sensitization fold, MRSA towards trovafloxacin (MRSA; Compound M-1 2.7 μg/ml): 16 fold | Sensitization of MRSA towards rifampicin (qualitative) (MRSA): sensitize MRSA towards rifampicin | viability at 12.5 µM (B. subtilis; Bacillus subtilis, 12.5 μM, 20 h, read-out: B. subtilis viability, compound alone): 80% | B. subtilis growth inhibition, compound in combination with novobiocin or tetracycline (B. subtilis; Compound M-1 12.5 μM, 20 h): significant bacterial growth inhibition | Effect of lipoteichoic acid (LTA) on growth inhibition by erythromycin + M-1 in B. subtilis (B. subtilis; LTA 1 mg/mL): could be inhibited by co-culturing with lipoteichoic acid (LTA) | B. subtilis growth inhibition, compound in combination with erythromycin vs erythromycin alone (B. subtilis; 20 h): significant bacterial growth inhibition | Effect of LPS or Mg2+ on sensitization of E. coli by M-1 with erythromycin (E. coli [2]; 2 mg/mL LPS or 21 mM Mg2+, M-1 12 μM): inhibited | E. coli growth inhibition, compound in combination with erythromycin (E. coli [2]): significant bacterial growth inhibition | FIC index, erythromycin on B. subtilis (wild type B. subtilis [6]): 0.14 | Sensitization fold, B. subtilis towards clarithromycin (wild type B. subtilis [6]): 32 fold | Sensitization fold, B. subtilis towards clindamycin (wild type B. subtilis [6]): 16 fold | Sensitization fold, B. subtilis towards entrapenem (wild type B. subtilis [6]): 4 fold | Sensitization fold, B. subtilis towards erythromycin (wild type B. subtilis [6]): 32 fold | Sensitization fold, B. subtilis towards methicillin (wild type B. subtilis [6]): 4 fold | Sensitization fold, B. subtilis towards novobiocin (wild type B. subtilis [6]): 4 fold | Sensitization fold, B. subtilis towards trovafloxacin (wild type B. subtilis [6]): 8 fold
